Experimental data: the supplement of paper PMC10307832

Experiments:
Assay in all cases: relative viability (nuclei count vs DMSO), 5 days (fraction); higher = more cells survive
BGJ398 + Navitoclax = compound: CCN1CCN(c2ccc(Nc3cc(N(C)C(=O)Nc4c(Cl)c(OC)cc(OC)c4Cl)ncn3)cc2)CC1 [BGJ398] + CC1(C)CCC(c2ccc(Cl)cc2)=C(CN2CCN(c3ccc(C(=O)NS(=O)(=O)c4ccc(N[C@H](CCN5CCOCC5)CSc5ccccc5)c(S(=O)(=O)C(F)(F)F)c4)cc3)CC2)C1 [Navitoclax] (partner 0.5 µM)
Procedure, shortened: (§1)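 Medians of duplicate plates are given as relative viability. That measure is the nuclei count in treated wells divided by the count in vehicle wells. Counts were taken on 4× images of lung cancer cell lines in 1536-well plates, 5 days after pin-tool dosing the day after seeding with one drug alone or a fixed anchor-drug dose plus five library-drug doses (not always all listed) in √10 steps.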

[1] = compound: C1=CC2=NC=CN=C2C=C1/C=C/3\C(=O)NC(=O)S3 + O=C(CCCCCCC(=O)Nc1ccccc1)NO [Vorinostat] (partner 1 µM)
Procedure, shortened: as §1

BGJ398 + Linsitinib = compound: CCN1CCN(c2ccc(Nc3cc(N(C)C(=O)Nc4c(Cl)c(OC)cc(OC)c4Cl)ncn3)cc2)CC1 [BGJ398] + C[C@]1(O)C[C@@H](c2nc(-c3ccc4ccc(-c5ccccc5)nc4c3)c3c(N)nccn32)C1 [Linsitinib] (partner 1 µM)
Procedure, shortened: as §1

[2] = compound: C1=CC2=NC=CN=C2C=C1/C=C/3\C(=O)NC(=O)S3 + COc1cccc2cc(-c3nc([C@H]4CC[C@H](C(=O)O)CC4)n4ncnc(N)c34)[nH]c12 [OSI-027] (partner 0.5 µM)
Procedure, shortened: as §1

Cell Line | relative viability (BGJ398 + Navitoclax; first compound 0.01 µM) | relative viability (BGJ398 + Navitoclax; first compound 0.03162 µM) | relative viability (BGJ398 + Navitoclax; first compound 0.1 µM) | relative viability (BGJ398 + Navitoclax; first compound 0.3162 µM) | relative viability (BGJ398 + Navitoclax; first compound 1 µM) | relative viability ([1]; first compound 0.02 µM) | relative viability ([1]; first compound 0.06325 µM) | relative viability ([1]; first compound 0.2 µM) | relative viability ([1]; first compound 0.6325 µM) | relative viability ([1]; first compound 2 µM) | relative viability (BGJ398 + Linsitinib; first compound 0.01 µM) | relative viability (BGJ398 + Linsitinib; first compound 0.03162 µM) | relative viability (BGJ398 + Linsitinib; first compound 0.1 µM) | relative viability (BGJ398 + Linsitinib; first compound 0.3162 µM) | relative viability (BGJ398 + Linsitinib; first compound 1 µM) | relative viability ([2]; first compound 0.02 µM) | relative viability ([2]; first compound 0.06325 µM) | relative viability ([2]; first compound 0.2 µM) | relative viability ([2]; first compound 0.6325 µM) | relative viability ([2]; first compound 2 µM)
201T | 1.33 | 1.19 | 1.2 | 1.2 | 1.17 | 0.763 | 0.949 | 0.985 | 0.898 | 0.723 | 1.17 | 1.08 | 1.07 | 1.06 | 1.01 | 0.664 | 0.682 | 0.714 | 0.671 | 0.23
A549 | 1.14 | 1.18 | 1.23 | 1.21 | 1.13 | – | – | – | – | – | 0.637 | 0.53 | 0.857 | 0.569 | 0.658 | – | – | – | – | –
A-427 | 0.978 | 0.92 | 0.914 | 0.67 | 0.624 | 0.791 | 0.877 | 0.888 | 0.864 | 0.947 | 1.12 | 1.15 | 1.15 | 0.884 | 0.799 | 0.476 | 0.55 | 0.54 | 0.435 | 0.365
ABC-1 | – | – | – | – | – | 1.27 | 1.16 | 1.56 | 1.01 | 0.912 | 0.685 | 1.01 | 0.746 | 0.999 | 0.658 | 0.434 | 0.509 | 0.509 | 0.408 | 0.232
BEN | 0.0852 | 0.15 | 0.0576 | 0.0618 | 0.0501 | 0.506 | 0.553 | 0.539 | 0.52 | 0.477 | 0.935 | 0.95 | 0.89 | 0.818 | 0.798 | 0.306 | 0.287 | 0.288 | 0.289 | 0.275
CAL-12T | 1.12 | 1.38 | 1.37 | 1.08 | 1.13 | 0.78 | 0.923 | 0.663 | 0.629 | 0.762 | 0.774 | 0.782 | 0.882 | 0.773 | 0.756 | 0.489 | 0.648 | 0.741 | 0.542 | 0.33
COR-L23 | 1.05 | 0.978 | 0.986 | 0.966 | 1.08 | 0.39 | 0.486 | 0.471 | 0.408 | 0.345 | 0.929 | 0.873 | 1.04 | 0.975 | 0.923 | 0.781 | 0.898 | 0.873 | 0.74 | 0.497
COR-L 105 | 0.707 | 0.805 | 0.815 | 0.827 | 0.598 | 0.694 | 0.872 | 0.697 | 0.605 | 0.835 | 0.824 | 1.09 | 0.851 | 0.777 | 0.8 | 0.743 | 0.669 | 0.729 | 0.623 | 0.435
Calu-6 | 0.794 | 0.838 | 0.796 | 0.788 | 0.795 | – | – | – | – | – | 0.932 | 0.969 | 0.901 | 0.922 | 0.952 | – | – | – | – | –
ChaGo-K-1 | 1.06 | 0.913 | 0.76 | 0.69 | 0.444 | 0.742 | 0.544 | 0.756 | 0.662 | 0.652 | – | – | – | – | – | 0.567 | 0.58 | 0.544 | 0.424 | 0.352
EBC-1 | 0.467 | 0.526 | 0.444 | 0.447 | 0.396 | – | – | – | – | – | 0.875 | 0.968 | 0.941 | 0.877 | 0.703 | – | – | – | – | –
EKVX | 0.896 | 1.02 | 1.16 | 0.874 | 0.992 | 0.704 | 0.576 | 0.761 | 0.709 | 0.594 | 0.776 | 0.859 | 1.17 | 1.05 | 1.05 | 0.69 | 0.405 | 0.683 | 0.683 | 0.408
EMC-BAC-2 | 1.14 | 1.16 | 1.26 | 1.15 | 1.16 | 0.488 | 0.535 | 0.602 | 0.452 | 0.222 | 0.815 | 0.785 | 0.842 | 0.825 | 0.872 | 0.307 | 0.436 | 0.416 | 0.37 | 0.251
EPLC-272H | 1.04 | 0.989 | 1.16 | 1.01 | 1.09 | 0.385 | 0.411 | 0.562 | 0.413 | 0.524 | 1.16 | 1.16 | 1.2 | 1 | 1.22 | 0.303 | 0.264 | 0.307 | 0.256 | 0.287
H3255 | 0.477 | 0.161 | 0.614 | 0.408 | 0.548 | 0.781 | 0.884 | 0.835 | 0.865 | 0.67 | 0.887 | 0.35 | 0.919 | 0.708 | 1.05 | 0.519 | 0.592 | 0.526 | 0.627 | 0.473
HARA | 1.11 | 1.14 | 1.19 | 1.13 | 1.05 | 0.548 | 0.463 | 0.522 | 0.487 | 0.406 | 0.845 | 0.856 | 0.903 | 0.978 | 0.902 | 0.482 | 0.396 | 0.586 | 0.43 | 0.195
HCC-15 | 0.723 | 0.75 | 0.747 | 0.734 | 0.769 | 0.733 | 0.737 | 0.872 | 0.844 | 0.702 | 0.981 | 0.968 | 0.921 | 0.981 | 0.936 | 0.759 | 0.672 | 0.726 | 0.641 | 0.373
HCC-44 | 0.797 | 0.91 | 1.13 | 1.06 | 0.866 | 0.959 | 1.13 | 1.08 | 1.13 | 1.17 | 0.63 | 0.616 | 0.7 | 0.76 | 0.629 | 0.775 | 0.445 | 0.656 | 0.463 | 0.225
